Results reported in publication PMC11249646, “Small-Molecule Disruptors of the Interaction between Calcium- and Integrin-Binding Protein 1 and Integrin αIIbβ3 as Novel Antiplatelet Agents” (ACS Pharmacology & Translational Science, 2024).
Read-outs that look alike come from different tables or passages of the source.

Key:
Format in all cases: binding
[1] = target: T1, CIB1 and αIIb interaction (GST-CIB1 : F-αIIb peptide) (Homo sapiens, UniProt Q99828); assay: FP assay, 384-well format (screen); parameters: 384-well SCREEN Efficacy (%): concentration or dose not given beside the values; conditions: F-αIIb peptide; for 384-well SCREEN Confirm?: YES/NO; for IC50: read-out: 384-well SCREEN IC50
T1 construct: made in house; host or cells: BL-21 plus RIL cells (E. coli)
T1 sequence (Q99828 1-191): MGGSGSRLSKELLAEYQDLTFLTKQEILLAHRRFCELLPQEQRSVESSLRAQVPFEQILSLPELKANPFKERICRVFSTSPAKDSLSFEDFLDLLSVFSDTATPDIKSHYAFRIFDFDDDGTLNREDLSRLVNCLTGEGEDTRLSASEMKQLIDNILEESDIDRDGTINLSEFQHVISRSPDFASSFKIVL

[2] = target: T2, CIB1 and αIIb interaction (CIB1-GST : F-αIIb peptide) (Homo sapiens, UniProt Q99828); assay: FP assay, 1536-well qHTS format (primary and confirmatory screen); conditions: for CONFIRMATORY SCREEN Confirm?: YES/NO call; for CONFIRMATORY SCREEN Curve Class: qHTS curve class; for CONFIRMATORY SCREEN Curve Class / Curve Class: negative sign = inhibitory curve; for CONFIRMATORY SCREEN Efficacy (%) / Efficacy (%): negative = inhibition
T2 construct: made in house; host or cells: BL-21 plus RIL cells (E. coli)
T2 sequence (Q99828 1-191): T1 sequence (Q99828 1-191)

[3] = target: T3, GST-CIB1 : F-scrambled peptide (Homo sapiens, UniProt Q99828); assay: FP scrambled-peptide counter screen, 384-well format; conditions: F-scrambled peptide; for 384-well COUNTERSCREEN Confirm?: *: Curve in opposite direction; for IC50: read-out: 384-well COUNTERSCREEN IC50
T3 construct: made in house; host or cells: BL-21 plus RIL cells (E. coli)
T3 sequence (Q99828 1-191): T1 sequence (Q99828 1-191)

[4] = target: T3, GST-CIB1 : F-scrambled peptide; assay: FP scrambled-peptide counter screen, 1536-well format; conditions: scrambled-peptide counterscreen; for COUNTERSCREEN Confirm?: YES/NO call; for COUNTERSCREEN Curve Class: qHTS curve class; for IC50: read-out: COUNTERSCREEN IC50
[5] = qHTS primary screen hits, Table S2
[6] = qHTS primary screen hits, Table S2, several classes where COUNT > 1
[7] = qHTS primary screen hits, Table S2, read-out: IC50
[8] = confirmatory screen, read-out: CONFIRMATORY SCREEN IC50
[9] = qHTS FP screen hits, Table S2, read-out: IC50

Compound	384-well SCREEN Efficacy (%) [1] [%]	384-well SCREEN Confirm? [1]	IC50 [1] [µM]	CONFIRMATORY SCREEN Confirm? ([2]; confirmatory screen)	CONFIRMATORY SCREEN Curve Class ([2]; confirmatory screen)	CONFIRMATORY SCREEN Efficacy (%) ([2]; confirmatory screen)	Efficacy (%) [2, 5] [%]	Curve Class [2, 6]	IC50 [2, 7] [µM]	384-well COUNTERSCREEN Efficacy (%) [3] [%]	384-well COUNTERSCREEN Confirm? [3]	IC50 [3] [µM]	COUNTERSCREEN Efficacy (%) [4] [%]	COUNTERSCREEN Confirm? [4]	COUNTERSCREEN Curve Class [4]	IC50 [2, 8] [µM]	IC50 [4] [µM]	Efficacy (%) ([2]; qHTS FP screen hits, Table S2)	Curve Class ([2]; qHTS FP screen hits, Table S2, one class per curve where COUNT > 1)	IC50 [2, 9] [µM]
O=C(O)C(F)(F)F.OCc1ccc(-c2ccc3ncnc(NCc4cccs4)c3c2)o1 [NCGC00189276-01]	72	YES	12.6	YES	-1.2	-62	-57	-1.2	25.1	34	YES	> 120	0	YES	4					
Cc1ccc(S(=O)(=O)Nc2cnccc2C(=O)Nc2nc(-c3ccc(C)c(C)c3)cs2)cc1.O=C(O)C(F)(F)F [NCGC00318954-01]	52	YES	16	YES	-1.4	-70	-61	-3		37	YES*	31.6	17	YES	4	22.4				
Cc1ccc(S(=O)(=O)Nc2cnccc2C(=O)Nc2nc(-c3ccccc3)cs2)cc1.O=C(O)C(F)(F)F [NCGC00262386-01]	29	YES	16.1	YES	-1.2	-53	-42		27.4	42	YES	> 120	-51	YES	-3	14.1	89.1			
Cc1ccc(C)n1-c1cccc(C(=O)O)c1.O=C(O)C(F)(F)F [NCGC00060597-02]	30	YES	17.7	YES	-1.2	-42				24	YES	> 120	-11	YES	4	8.9				
Cc1cc(S(=O)(=O)Nc2cnccc2C(=O)Nc2nc(-c3ccccc3)cs2)c(C)o1.O=C(O)C(F)(F)F [NCGC00345029-01]	42	YES	20	YES	-1.1	-83				16	YES	> 120	10	YES	4					
CCc1nnc(NS(=O)(=O)c2ccc(NC(=S)NC(=O)/C=C/c3ccc(F)cc3)cc2)s1 [NCGC00351476-01]	30	YES	4.5	YES	-1.2	-36				-30		5	57	YES	3	8.9	70.8	-29	-1.2	7.9
O=C(O)C(F)(F)F.O=c1c2ccccc2nc2sc(Nc3cccc(N4CCN5CCCCC5C4)c3)nn12 (centres unmarked) [NCGC00189229-01]	42	YES	120	YES	-1.2	-50				42		17.8	-28	YES	-2.4	7.9	56.2	-20		2.5
Cc1ccc(-c2cc(-c3nn(-c4nc(C(=O)O)cs4)c(CC4CC4)c3Cc3ccc(S(N)(=O)=O)c(F)c3)ccc2F)o1 [NCGC00389082-01]	60	YES	4.5	YES	-3	-77	-40	-2.4	22.4	158	YES	39.8	154	YES		28.2	79.4			
CSC(Cc1ccc(Cl)cc1)C(=O)Nc1ccc(Cl)cc1C(=O)O.O=C(O)C(F)(F)F (centres unmarked) [NCGC00189231-01]	31	YES	120	YES	-2.4	-50	-23	-2.4	22.4	29	YES	> 120	0	YES	4	44.7				
